Patent US20070172844A1, “Individualized cancer treatments” (University of South Florida, priority 2005, published 2007)

What was measured:
[1] = tested on: advanced ovarian cancer patients; assay: Clinical response to salvage chemotherapy (topotecan, paclitaxel, docetaxel); format: in vivo, human; settings: for Actual Overall response: Ovarian, single agent salvage therapy
Description: Classification of topotecan response—Response to therapy was retrospectively evaluated from the medical record using standard criteria for patients with measurable disease, based upon WHO guidelines (Miller A B, et al., Cancer 1981;47:207-14). CA-125 was used to classify responses only in the absence of a measurable lesion; CA-125 response criteria were based on established guidelines (Miller A B, et al. Cancer 1981;47:207-14; Rustin G J, et al., Ann. Onco. 110:21-27, 1999). […] A complete response (CR) was defined as a complete disappearance of all measurable and assessable disease or, in the absence of measurable lesions, a normalization of the CA-125 level following topotecan therapy. A partial response (PR) was considered a 50% or greater reduction in the product obtained from measurement of each bi-dimensional lesion for at least 4 weeks or a drop in the CA-125 by at least 50% for at least 4 weeks. Progressive disease (PD) was defined as a 50% or greater increase in the product from any lesion documented within 8 weeks of initiation of therapy, the appearance of any new lesion within 8 weeks of initiation of therapy, or any increase in the CA-125 from baseline at initiation of therapy. Stable disease (SD) was defined as disease not meeting any of the above criteria.
Tissues—We measured expression of 22,283 genes in 12 ovarian cancer cell lines and 48 advanced (FIGO stage III/IV) serous epithelial ovarian carcinomas using Affymetrix U133A GeneChips. All ovarian cancers were obtained at initial cytoreductive surgery from patients treated at H. Lee Moffitt Cancer Center & Research Institute or Duke University Medical Center. All patients received topotecan as salvage chemotherapy after initial platinum based therapy. All tissues were collected under the auspices of a respective institutional IRB approved protocol with written informed consent.
Classification of topotecan response in tumors—Response to therapy was retrospectively evaluated from the medical record using standard criteria for patients with measurable disease, based upon WHO guidelines ((Miller A B, et al., Cancer 1981;47:207-14). CA-125 was used to classify responses only in the absence of a measurable lesion; CA-125 response criteria were based on established guidelines (Miller A B, et al. Cancer 1981;47:207-14; Rustin G J, et al., Ann. Onco. 110:21-27, 1999). A complete responder was defined as a complete disappearance of all measurable and assessable disease or, in the absence of measurable lesions, a normalization of the CA-125 level following topotecan therapy. Non-responders/patients with progressive disease (PD) were defined as a 50% o or greater increase in the primary lesion(s) documented within 8 weeks of initiation of therapy or the appearance of any new lesion within 8 weeks of initiation of therapy.
Full details of the methods used for RNA extraction and development of gene expression signatures representing deregulation of oncogenic pathways in the tumor samples are recently described.^36 Response to therapy was evaluated using standard criteria for patients with measurable disease, based upon WHO guidelines.^28

[2] = tested on: ovarian cancer cell lines; assay: Cell proliferation assays (MTS, percentage reduction in growth at 120 hr), Example 1; format: cell-based, human; settings: inhibition of proliferation vs probability of pathway activation
Description: Cell lines and RNA extraction-The ovarian cancer cell lines, OV90, TO[…], and TO[…] were grown as recommended by the supplier (ATCC, Rockville, Md.). FUOV1, a human ovarian carcinoma, was grown according to the supplier (DSMZ, Braunschweig, Germany). Eight additional cell lines (C13, OV2008, A2780CP, A2780S, IGROV1, T8, OVCAR5 and IMCC3) were provided by Dr. Patricia Kruk, Department of Pathology, College of Medicine (University of South Florida, Tampa, Fla.). […] All tissue culture reagents were obtained from Sigma Aldrich (St. Louis, Mo.). Total RNA was extracted from each cell line and assayed on the Human 133 plus 2.0 arrays. Cell proliferation assays-Assays measuring cell proliferation and the effects of targeted agents have been described previously^36. Briefly, growth curves for the ovarian cancer cell lines were carried out by plating 300-4000 cells per well of a 96-well plate. The growth of cells at 12 hr time points (from t=12 hrs) was determined using the CellTiter 96 Aqueous One Solution Cell Proliferation Assay Kit by Promega, which is a colorimetric method for determining the number of growing cells. […] The degree of proliferation inhibition was plotted as a function of probability of Src pathway activation or E2F3 pathway activation.

[3] = tested on: ovarian cancer cell lines; assay: Cell proliferation assays (percent reduction in growth at 96 hrs), 12 ovarian cancer cell lines, Examples 2 and 3; format: cell-based, human
Description: Cell Culture—All liquid media as well as the Thiazolyl Blue Tetrazolium Bromide were purchased from Sigma Aldrich (St. Louis, Mo.). The Src inhibitor SU6656 and the Topotecan hydrochloride were purchased from Calbiochem (San Diego, Calif.). The ovarian cancer cell lines, OV90, OVCA5, TOV21G, and TOV12D were grown as recommended by the supplier (ATCC, Rockville, Md.). FUOV1, a human ovarian carcinoma, was grown according to the supplier (DSMZ; Braunschweig, Germany). Seven additional cell lines (C13, OV2008, A2780CP, A2780S, IGROV1, T8, IMCC3) were provided by Dr. Patricia Kruk, College of Medicine (University of South Florida, Fla.). All of those seven cell lines were grown in RPMI 1640, supplemented with 10% Fetal Bovine Serum, 1% sodium pyruvate, and 1% non essential amino acids. All tissue culture reagents were obtained from Sigma (UK).
Cell proliferation assays—Growth curves for cells were produces out by plating at 500-10,000 cells per well of a 96-well plate. The growth of cells at 12 hr time points (from t=12 hrs) was determined using the CellTiter 96 Aqueous One 23 Solution Cell Proliferation Assay Kit by Promega, which is a calorimetric method for determining the number of growing cells. […] Cumulatively, these experiments determined the concentration of cells to use for each cell line, as well as the dosing range of the inhibitors. […] Sensitivity to topotecan and a Src inhibitor (SU6656), both single alone and combined was determined by quantifying the percent reduction in growth (versus DMSO controls) at 96 hrs. […]
In the analysis of the various oncogenic pathways, analysis of expression data was done as previously described in Bild A, et al., Nature 439:353-357, 2006 and West M, et al., Proc. Natl. Acad. Sci. USA 2001;98(20):11462-7). […] Each oncogenic signature summarizes its constituent genes as a single expression profile, and is derived as the first principal component of that set of genes (the factor corresponding to the largest singular value) as determined by a singular value decomposition. […]

[4] = tested on: ovarian cancer cell lines; assay: Cell proliferation assay (MTT, 96 hrs), topotecan and SU6656 in 13 ovarian cell lines; format: cell-based, human; settings: 13 ovarian cancer cell lines
Description: Cell proliferation assays. Growth curves for cells were produced by plating 500-10,000 cells per well in 96-well plates. The growth of cells at 12 hr time points (from t=12 hrs) was determined using the CellTiter 96 Aqueous One 23 Solution Cell Proliferation Assay Kit by Promega, which is a colorimetric method for determining the number of growing cells.^36 The growth curves plot the growth rate of cells vs. each concentration of drug tested against individual cell lines. Cumulatively, these experiments determined the concentration of cells to use for each cell line, as well as the dosing range of the inhibitors. The final dose-response curves in our experiments plot the percent of cell population responding to the chemotherapy vs. the concentration of the drug for each cell line. Sensitivity to docetaxel and a phosphatidylinositol 3-kinase (PI3 kinase) inhibitor (LY-294002)^36 in 17 lung cell lines, and topotecan and a Src inhibitor (SU6656) in 13 ovarian cell lines was determined by quantifying the percent reduction in growth (versus DMSO controls) at 96 hrs using a standard MTT colorimetric assay.^36 Concentrations used ranged from 1-10 nM for docetaxel, 300 nM-10 μM (SU6656), and 300 nM-[…] for LY-294002. All experiments were repeated at least three times.

breast cancer patients = settings: Breast Tumor Data; published neoadjuvant data sets (MDACC TFAC n=51, complete pathologic response; single agent docetaxel n=24); cited from earlier work
[5] = tested on: adriamycin treated patients; settings: Evans et al data set, n=122; cited from earlier work

CC(=O)O[C@H]1C(=O)[C@@]2(C)[C@H]([C@H](OC(=O)c3ccccc3)[C@]3(O)C[C@H](OC(=O)[C@H](O)[C@@H](NC(=O)c4ccccc4)c4ccccc4)C(C)=C1C3(C)C)[C@]1(OC(C)=O)CO[C@@H]1C[C@@H]2O [Paclitaxel, paclitaxel]
Actual Overall response [1]: 20/35 (57.1%)

CC[C@@]1(O)C(=O)OCc2c1cc1n(c2=O)Cc2cc3c(CN(C)C)c(O)ccc3nc2-1 [Topotecan, topotecan]
Actual Overall response [1]: 20/48 (41.6%)
patients classified as topotecan non-responders ([1]; of 48 patients, non-responder = PD): 18
patients classified as topotecan responders ([1]; of 48 patients, responder = CR, PR or SD): 30

CN(C)S(=O)(=O)c1ccc2c(c1)/C(=C/c1cc3c([nH]1)CCCC3)C(=O)N2 [SU6656]
relationship between predicted pathway deregulation (Src or E2F3) and drug sensitivity [2]: clear and statistically significant relationship
relationship between predicted src-pathway deregulation and response to src-inhibitor alone ([3]; 12 ovarian cancer cell lines): clear relationship
effect of Src inhibitor on sensitivity to topotecan ([3]; growth inhibition, 12 ovarian cancer cell lines): increases ovarian cancer cell line sensitivity to topotecan
relationship between probability of topotecan resistance and sensitivity to Src pathway inhibitor [4]: significant linear relationship

CC(=O)O[C@@]12CO[C@@H]1C[C@H](O)[C@@]1(C)C(=O)[C@H](O)C3=C(C)[C@@H](OC(=O)[C@H](O)[C@@H](NC(=O)OC(C)(C)C)c4ccccc4)C[C@@](O)([C@@H](OC(=O)c4ccccc4)[C@H]21)C3(C)C [Docetaxel, docetaxel]
Actual Overall response [1]: 7/14 (50%)
Actual Overall response (breast cancer patients): 13/24 (54.1%)

N.N.[Cl][Pt][Cl] [cisplatin]
relationship between predicted pathway deregulation (Src or E2F3) and drug sensitivity [2]: no evident relationship

COc1cccc2c1C(=O)c1c(O)c3c(c(O)c1C2=O)C[C@@](O)(C(=O)CO)C[C@@H]3O[C@H]1C[C@H](N)[C@H](O)[C@H](C)O1 [Adriamycin, adriamycin]
Actual Overall response [5]: 24/122 (19.6%)

CC[C@H](CO)Nc1nc(NCc2ccccc2)c2ncn(C(C)C)c2n1 [CYC202/R-Roscovitine]
relationship between predicted pathway deregulation (Src or E2F3) and drug sensitivity [2]: clear and statistically significant relationship
relationship between predicted adriamycin resistance and sensitivity to cdk inhibitor ([3]; ovarian cancer cell lines): coincides with sensitivity to R-Roscovitine
